The text below walks through data of US9567345B2, “Pharmaceutically active pyrazolo-triazine derivatives” (LEAD DISCOVERY CENTER GMBH, priority 2012, dated 2017).

Each structure is given as a SMILES string. Like-named read-outs stand apart in the source and are kept apart here.

Assay [1] has as its target CDK7/CycH/Mat1 (Homo sapiens, UniProt P50613). Nature of the assay: CDK7 Enzymatic Activity Assay (Lance Kinase Activity Assay, FRET). The class given is biochemical. The method, then:
(§1) This protocol describes how the Lance Kinase Activity Assay was performed to determine IC50 values of compounds of general formula (I) against CDK/Cyclin complexes. The principle behind this enzymatic assay is based upon the phosphorylation of the Ulight-Peptide Substrat. It is detected by using a specific EU-labeled anti-phospho peptide antibody.
(§2) Binding of an inhibitor to the kinase prevents phosphorylation of the Ulight-MBP Substrat, resulting in a loss of FRET.
CDK7 Enzymatic Activity Assay
(§3) The compounds of general formula (I) exemplary summarized in Table 1 were diluted from a 10 mM DMSO stock solution 1:10 in a total volume of 15 μl DMSO. This compound predilution was then serial diluted 1:3 over 8 steps in DMSO and briefly spun down. Each compound solution was now diluted 1:20 in Enzymatic Buffer (HEPES: 50 mM, pH: 7.5; MgCl2: 10 mM; EGTA: 1 mM; DTT: 2 mM; Tween-20: 0.01%), mixed thoroughly and spun down.
(§4) For positive controls, 2 μl of DMSO working solution were mixed with 6 μl CDK7/CycH/Mat1/substrate working solution and 2 μl ATP working solution. Positive and negative controls were calculated from at least 8 different wells. The 384 well plates were mixed in a Teleshaker plate mixer (Beckman Coulter, Brea, Calif., USA) at 2000 rpm for 40 sec, and incubated for 1 h at room temperature before addition of 10 μl LANCE Detection Buffer (1×; EDTA: […]; Eu-Anti-P-MBP: 4 nM) per well. Plates were mixed in a Teleshaker plate mixer (Beckman Coulter, Brea, Calif., USA) at 2000 rpm for 40 sec, followed by incubation with Detection Buffer for 1 h, and reading. […] IC50 values were determined from the sigmoidal dose response curves with the software Quattro Workflow (Quattro GmbH, Munich, Germany).

The target of assay [2] is CDK9/Cyclin T1 (Homo sapiens, UniProt P50750). Nature of the assay: CDK9 Enzymatic Activity Assay (Lance Kinase Activity Assay, FRET). The note with it: for IC50: Table 5B, class symbols per IC50 [nM] ranges of b581, read-out: CDK9: Selectivity of CDK7 inhibition over CDK9 inhibition. In kind it is biochemical. How it is done:
as §1, §2
CDK9 Enzymatic Activity Assay
as §3
as §4, with “CDK9/cyclin T1/substrate” for “CDK7/CycH/Mat1/substrate”

[3] abbreviates: CDK7/CycH/Mat1, 25 μM ATP final, class ranges, read-out: CDK7: IC50 [nM] for CDK7 inhibition.

CDK9/Cyclin T1, sequence (P50750 whole entry): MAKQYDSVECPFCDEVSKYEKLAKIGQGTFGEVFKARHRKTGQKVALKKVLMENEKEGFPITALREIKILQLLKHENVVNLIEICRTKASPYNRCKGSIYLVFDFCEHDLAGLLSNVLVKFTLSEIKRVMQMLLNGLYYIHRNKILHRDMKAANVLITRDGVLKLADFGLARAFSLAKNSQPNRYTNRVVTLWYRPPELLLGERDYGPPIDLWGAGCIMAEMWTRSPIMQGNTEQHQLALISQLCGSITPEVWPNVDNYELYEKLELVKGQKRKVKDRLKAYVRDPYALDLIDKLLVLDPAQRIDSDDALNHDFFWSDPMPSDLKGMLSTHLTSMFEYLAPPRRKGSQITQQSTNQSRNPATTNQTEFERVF
CDK9/Cyclin T1, sequence (O60563 whole entry partner): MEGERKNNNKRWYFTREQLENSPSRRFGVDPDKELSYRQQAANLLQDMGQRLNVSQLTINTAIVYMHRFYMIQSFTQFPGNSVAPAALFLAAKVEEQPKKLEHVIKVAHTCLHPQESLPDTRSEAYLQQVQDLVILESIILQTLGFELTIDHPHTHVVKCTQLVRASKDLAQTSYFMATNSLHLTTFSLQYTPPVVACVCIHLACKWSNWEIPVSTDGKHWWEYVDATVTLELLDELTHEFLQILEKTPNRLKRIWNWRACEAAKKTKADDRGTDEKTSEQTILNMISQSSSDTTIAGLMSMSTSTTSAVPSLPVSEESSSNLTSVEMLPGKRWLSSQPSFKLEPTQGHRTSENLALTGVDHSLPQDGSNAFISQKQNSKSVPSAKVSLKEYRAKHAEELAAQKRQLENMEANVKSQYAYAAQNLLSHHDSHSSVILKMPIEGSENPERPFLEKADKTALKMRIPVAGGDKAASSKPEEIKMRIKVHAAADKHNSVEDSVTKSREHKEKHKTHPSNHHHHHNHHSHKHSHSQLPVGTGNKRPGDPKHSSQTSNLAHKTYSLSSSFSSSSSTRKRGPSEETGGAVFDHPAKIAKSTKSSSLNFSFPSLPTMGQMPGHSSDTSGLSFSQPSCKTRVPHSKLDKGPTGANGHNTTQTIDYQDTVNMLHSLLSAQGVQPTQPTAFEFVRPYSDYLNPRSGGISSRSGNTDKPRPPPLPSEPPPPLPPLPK
CDK7/CycH/Mat1, sequence (P50613 whole entry): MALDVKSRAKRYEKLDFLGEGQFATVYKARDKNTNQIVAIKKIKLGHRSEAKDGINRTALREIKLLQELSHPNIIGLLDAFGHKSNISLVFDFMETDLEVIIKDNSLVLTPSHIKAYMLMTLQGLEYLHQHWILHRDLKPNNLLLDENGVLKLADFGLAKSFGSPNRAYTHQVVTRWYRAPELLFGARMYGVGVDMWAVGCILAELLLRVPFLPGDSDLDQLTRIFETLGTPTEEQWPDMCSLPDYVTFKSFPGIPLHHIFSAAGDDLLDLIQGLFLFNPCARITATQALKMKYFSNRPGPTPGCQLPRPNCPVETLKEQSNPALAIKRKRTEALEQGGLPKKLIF

With `CC(C)c1cnn2c(NCc3ccccc3-n3cccn3)nc(OC3CC4(CNC4)C3)nc12` [(VII-04), N-(2-(1H-pyrazol-1-yl)benzyl)-2-(2-azaspiro[3.3]heptan-6-yloxy)-8-isopropylpyrazolo[1,5-a][1,3,5]triazin-4-amine], the IC50 in assay [1] (setting [3]) was less than 5 nM.

For `COc1ccccc1[C@H](C)Nc1nc(O[C@@H]2CCCNC2)nc2c(C(C)C)cnn12` [(VII-10), 8-isopropyl-N-((S)-1-(2-methoxyphenyl)ethyl)-2-((R)-piperidin-3-yloxy)pyrazolo[1,5-a][1,3,5]triazin-4-amine], the IC50 in assay [2] was 500 to 2500 nM; in assay [1] (setting [3]), less than 5 nM.

`COc1ccccc1[C@H](C)Nc1nc(OC2CCNCC2)nc2c(C(C)C)cnn12` [(VII-15), (S)-8-isopropyl-N-(1-(2-methoxyphenyl)ethyl)-2-(piperidin-4-yloxy)pyrazolo[1,5-a][1,3,5]triazin-4-amine]: the IC50 in assay [2] was more than 2500 nM; in assay [1] (setting [3]), less than 5 nM.

Consider `CC(C)Oc1ccccc1CNc1nc(OC2CCNCC2)nc2c(C(C)C)cnn12` [(VII-17), N-(2-isopropoxybenzyl)-8-isopropyl-2-(piperidin-4-yloxy)pyrazolo[1,5-a][1,3,5]triazin-4-amine], for which the IC50 in assay [2] is more than 2500 nM; in assay [1] (setting [3]) it was less than 5 nM.

`CC(C)c1cnn2c(NCc3ccccc3-n3ccnc3)nc(OC3CCNCC3)nc12` [(VII-19), N-(2-(1H-imidazol-1-yl)benzyl)-8-isopropyl-2-(piperidin-4-yloxy)pyrazolo[1,5-a][1,3,5]triazin-4-amine]: the IC50 in assay [2] is 500 to 2500 nM; in assay [1] (setting [3]), less than 5 nM.

In the case of `CC(C)c1cnn2c(NCc3ccccc3-n3cncn3)nc(O[C@@H]3CCCNC3)nc12` [(VII-20), (R)-N-(2-(1H-1,2,4-triazol-1-yl)benzyl)-8-isopropyl-2-(piperidin-3-yloxy)pyrazolo[1,5-a][1,3,5]triazin-4-amine], the IC50 was 500 to 2500 nM in assay [2] and less than 5 nM in assay [1] (setting [3]).

On to `Cc1nccn1-c1ccccc1CNc1nc(OC2CCNCC2)nc2c(C(C)C)cnn12` [(VII-24), 8-isopropyl-N-(2-(2-methyl-1H-imidazol-1-yl)benzyl)-2-(piperidin-4-yloxy)pyrazolo[1,5-a][1,3,5]triazin-4-amine], for which the IC50 in assay [2] is more than 2500 nM; in assay [1] (setting [3]), less than 5 nM.

In the case of `Cc1nccn1-c1ccccc1CNc1nc(O[C@@H]2CCNC2)nc2c(C(C)C)cnn12` [(VII-25), (R)-8-isopropyl-N-(2-(2-methyl-1H-imidazol-1-yl)benzyl)-2-(pyrrolidin-3-yloxy)pyrazolo[1,5-a][1,3,5]triazin-4-amine], the IC50 in assay [2] was more than 2500 nM; in assay [1] (setting [3]), less than 5 nM.

`CC(C)c1cnn2c(N[C@@H](C)c3ccccc3Cl)nc(O[C@@H]3CCCNC3)nc12` [(VII-28), N-((S)-1-(2-chlorophenyl)ethyl)-8-isopropyl-2-((R)-piperidin-3-yloxy)pyrazolo[1,5-a][1,3,5]triazin-4-amine]: the IC50 in assay [2] was more than 2500 nM; in assay [1] (setting [3]), less than 5 nM.

With `CC(C)c1cnn2c(NCc3ccccc3N3CCC3=O)nc(O[C@@H]3CCCNC3)nc12` [(VII-40), (R)-1-(2-(((8-isopropyl-2-(piperidin-3-yloxy)pyrazolo[1,5-a][1,3,5]triazin-4-yl)amino)methyl)phenyl)azetidin-2-one], the IC50 in assay [2] was more than 2500 nM; in assay [1] (setting [3]), more than 25 nM.

Turning to `CC(C)c1cnn2c(NCc3ccccc3-c3cccnc3)nc(OC3CCN(C)CC3)nc12` [(VII-45), 8-isopropyl-2-((1-methylpiperidin-4-yl)oxy)-N-(2-(pyridin-3-yl)benzyl)pyrazolo[1,5-a][1,3,5]triazin-4-amine], the IC50 in assay [2] is more than 2500 nM; in assay [1] (setting [3]) it was less than 5 nM.

Consider `CC(C)c1cnn2c(NCc3ccccc3-c3cccnc3)nc(O[C@@H]3CCCNC3)nc12` [(VII-46), (R)-8-isopropyl-2-(piperidin-3-yloxy)-N-(2-(pyridin-3-yl)benzyl)pyrazolo[1,5-a][1,3,5]triazin-4-amine], for which the IC50 in assay [2] was more than 2500 nM; in assay [1] (setting [3]) it was less than 5 nM.

`CC(C)c1cnn2c(NCc3ccccc3Oc3ccccc3)nc(OC3CCN(C)CC3)nc12` [(VII-47), 8-isopropyl-2-((1-methylpiperidin-4-yl)oxy)-N-(2-phenoxybenzyl)pyrazolo[1,5-a][1,3,5]triazin-4-amine]: the IC50 in assay [1] (setting [3]) was less than 5 nM.

`CC(C)c1cnn2c(NCc3ccccc3Oc3ccccc3)nc(O[C@@H]3CCCNC3)nc12` [(VII-48), (R)-8-isopropyl-N-(2-phenoxybenzyl)-2-(piperidin-3-yloxy)pyrazolo[1,5-a][1,3,5]triazin-4-amine]: the IC50 in assay [1] (setting [3]) is less than 5 nM.

As to `CC(C)c1cnn2c(NCc3ccccc3-c3ncco3)nc(O[C@@H]3CCCNC3)nc12` [(VII-49), (R)-8-isopropyl-N-(2-(oxazol-2-yl)benzyl)-2-(piperidin-3-yloxy)pyrazolo[1,5-a][1,3,5]triazin-4-amine], the IC50 in assay [1] (setting [3]) is less than 5 nM.

Regarding `CC(C)c1cnn2c(NCc3ccccc3-c3ccco3)nc(O[C@@H]3CCCNC3)nc12` [(VII-50), (R)-N-(2-(furan-2-yl)benzyl)-8-isopropyl-2-(piperidin-3-yloxy)pyrazolo[1,5-a][1,3,5]triazin-4-amine], in assay [1] (setting [3]), the IC50 is less than 5 nM.

For the compound `CC(=O)Nc1ccccc1CNc1nc(O[C@@H]2CCCNC2)nc2c(C(C)C)cnn12` [(VII-51), (R)-N-(2-(((8-isopropyl-2-(piperidin-3-yloxy)pyrazolo[1,5-a][1,3,5]triazin-4-yl)amino)methyl)phenyl)acetamide], the IC50 in assay [1] (setting [3]) was less than 5 nM; in assay [1] (Table 7, read-out: IC50 CDK7), less than 5 nM.

As to `Cc1ccccc1CNc1nc(OC2CCN(C)CC2)nc2c(C(C)C)cnn12` [(VII-53), 8-isopropyl-N-(2-methylbenzyl)-2-((1-methylpiperidin-4-yl)oxy)pyrazolo[1,5-a][1,3,5]triazin-4-amine], the figures for the IC50 in assay [2] and in assay [1] (setting [3]) were 50 to 500 nM and 5 to 10 nM, respectively.

With `CC(C)c1cnn2c(NCc3ccccc3N(C)C)nc(OC3CCN(C)CC3)nc12` [(VII-54), N-(2-(dimethylamino)benzyl)-8-isopropyl-2-((1-methylpiperidin-4-yl)oxy)pyrazolo[1,5-a][1,3,5]triazin-4-amine], the IC50 in assay [2] lay in the range of 50 to 500 nM; in assay [1] (setting [3]), 5 to 10 nM.

`CC(C)c1cnn2c(NCc3ccccc3C#N)nc(OC3CCN(C)CC3)nc12` [(VII-55), 2-(((8-isopropyl-2-((1-methylpiperidin-4-yl)oxy)pyrazolo[1,5-a][1,3,5]triazin-4-yl)amino)methyl)benzonitrile]: the IC50 in assay [2] was more than 2500 nM; in assay [1] (setting [3]) it was 10 to 25 nM.

As for `CC(C)c1cnn2c(NCc3ccccc3-c3ccccc3)nc(OC3CCN(C)CC3)nc12` [(VII-57), N-([1,1′-biphenyl]-2-ylmethyl)-8-isopropyl-2-((1-methylpiperidin-4-yl)oxy)pyrazolo[1,5-a][1,3,5]triazin-4-amine], the IC50 was more than 2500 nM in assay [2]; less than 5 nM in assay [1] (setting [3]); less than 5 nM in assay [1] (Table 6, read-out: IC50 CDK7). Moreover, in assay [2] (Table 6), the “Selectivity CDK7 over CDK9” value came out at 909 fold.

As to `CC(C)c1cnn2c(NCc3ccccc3C(F)(F)F)nc(OC3CCN(C)CC3)nc12` [(VII-058), 8-isopropyl-2-((1-methylpiperidin-4-yl)oxy)-N-(2-(trifluoromethyl)benzyl)pyrazolo[1,5-a][1,3,5]triazin-4-amine], the IC50 in assay [1] (setting [3]) was more than 25 nM.

As to `CC(C)c1cnn2c(NCc3ccccc3NC(=O)Nc3ccccc3)nc(O[C@@H]3CCCNC3)nc12` [(VII-111), (R)-1-(2-(((8-isopropyl-2-(piperidin-3-yloxy)pyrazolo[1,5-a][1,3,5]triazin-4-yl)amino)methyl)phenyl)-3-phenylurea], in assay [1] (setting [3]), the IC50 lay in the range of 10 to 25 nM.

For the compound `CC(C)c1cnn2c(NCc3ccccc3-n3cccn3)nc(OC3CNC3)nc12` [(VII-141), N-(2-(1H-pyrazol-1-yl)benzyl)-2-(azetidin-3-yloxy)-8-isopropylpyrazolo[1,5-a][1,3,5]triazin-4-amine], in assay [1] (setting [3]), the IC50 was in the range of 10 to 25 nM.

Turning to `CC(C)c1cnn2c(NCc3ccccc3)nc(OC3CCN(C)CC3)nc12` [C-I, reference compound], the IC50 in assay [1] (Table 6, read-out: IC50 CDK7) is less than 5 nM.

For `CC(C)c1cnn2c(NCc3ccccc3)nc(O[C@@H]3CCCNC3)nc12` [C-II, reference compound], the IC50 in assay [1] (Table 6, read-out: IC50 CDK7) was less than 5 nM.
